Assays:
[1] = wn = mass fraction of the nth substance listed; conditions: 101 kPa, Liquid
[2] = 101 kPa, Liquid

OCCC1CCCCN1 (stereo not given) [2-(2-hydroxyethyl)piperidine] + O
[1]
Conditions | mass density [kg/m3] | viscosity [mPa·s]
288 K, w1 = 0.05 | 1001.8 | 1.364
288 K, w1 = 0.1 | 1004.7 | 1.775
288 K, w1 = 0.15 | 1005 | 2.313
288 K, w1 = 0.2 | 1011.1 | 2.935
288 K, w1 = 0.25 | 1014.5 | 3.921
288 K, w1 = 0.3 | 1017.3 | 5.218
293 K, w1 = 0.05 | 1000.1 | 1.298
293 K, w1 = 0.1 | 1002.3 | 1.655
293 K, w1 = 0.15 | 1003.2 | 2.097
293 K, w1 = 0.2 | 1008.3 | 2.696
293 K, w1 = 0.25 | 1012.5 | 3.506
293 K, w1 = 0.3 | 1014.9 | 4.697
298 K, w1 = 0.05 | 998.9 | 1.116
298 K, w1 = 0.1 | 1001.6 | 1.423
298 K, w1 = 0.15 | 1002.4 | 1.762
298 K, w1 = 0.2 | 1005.9 | 2.289
298 K, w1 = 0.25 | 1010.1 | 2.968
298 K, w1 = 0.3 | 1012.7 | 3.858
303 K, w1 = 0.05 | 997.6 | 1.064
303 K, w1 = 0.1 | 999.6 | 1.316
303 K, w1 = 0.15 | 1001.4 | 1.599
303 K, w1 = 0.2 | 1003.7 | 2.037
303 K, w1 = 0.25 | 1007.5 | 2.603
303 K, w1 = 0.3 | 1009.6 | 3.429
308 K, w1 = 0.05 | 996 | 0.959
308 K, w1 = 0.1 | 997.4 | 1.216
308 K, w1 = 0.15 | 998.9 | 1.489
308 K, w1 = 0.2 | 1001.7 | 1.869
308 K, w1 = 0.25 | 1003.1 | 2.382
308 K, w1 = 0.3 | 1006.4 | 3.069
313 K, w1 = 0.05 | 994.3 | 0.828
313 K, w1 = 0.1 | 996.5 | 1.015
313 K, w1 = 0.15 | 997.9 | 1.253
313 K, w1 = 0.2 | 999.3 | 1.511
313 K, w1 = 0.25 | 999.9 | 1.938
313 K, w1 = 0.3 | 1001.8 | 2.468
318 K, w1 = 0.05 | 992.4 | 0.776
318 K, w1 = 0.1 | 994.2 | 0.965
318 K, w1 = 0.15 | 995.5 | 1.156
318 K, w1 = 0.2 | 996.7 | 1.429
318 K, w1 = 0.25 | 998.8 | 1.795
318 K, w1 = 0.3 | 1000.2 | 2.229
323 K, w1 = 0.05 | 990.3 | 0.684
323 K, w1 = 0.1 | 991.7 | 0.828
323 K, w1 = 0.15 | 993.5 | 0.995
323 K, w1 = 0.2 | 994.7 | 1.193
323 K, w1 = 0.25 | 996.1 | 1.523
323 K, w1 = 0.3 | 997.3 | 1.891
328 K, w1 = 0.05 | 987.7 | 0.651
328 K, w1 = 0.1 | 988.7 | 0.778
328 K, w1 = 0.15 | 990.6 | 0.975
328 K, w1 = 0.2 | 991.9 | 1.173
328 K, w1 = 0.25 | 993 | 1.39
328 K, w1 = 0.3 | 994.3 | 1.769
333 K, w1 = 0.05 | 983.5 | 0.585
333 K, w1 = 0.1 | 985.9 | 0.695
333 K, w1 = 0.15 | 987.9 | 0.837
333 K, w1 = 0.2 | 988.7 | 1.013
333 K, w1 = 0.25 | 990.3 | 1.229
333 K, w1 = 0.3 | 991.3 | 1.536

CN(CCO)CCO [N-methyldiethanolamine]
[2]
Conditions | mass density [kg/m3] | viscosity [mPa·s]
288 K | 1044.1 | 142.02
313 K | 1027.2 | 34.73
333 K | 1012.6 | 14.66

CN(CCO)CCO [N-methyldiethanolamine] + O
[1]
Conditions | mass density, w1 = 0.1 [kg/m3] | mass density, w1 = 0.2 [kg/m3] | mass density, w1 = 0.3 [kg/m3] | mass density, w1 = 1 [kg/m3] | viscosity, w1 = 0.1 [mPa·s] | viscosity, w1 = 0.2 [mPa·s] | viscosity, w1 = 0.3 [mPa·s] | viscosity, w1 = 1 [mPa·s]
288 K | 1007.9 | 1016.7 | 1030.7 | 1044.1 | 1.703 | 2.624 | 4.399 | 142.02
313 K | 1000.4 | 1008.6 | 1019.3 | 1027.2 | 0.899 | 1.305 | 1.929 | 34.73
333 K | 990.2 | 999.5 | 1007.1 | 1012.6 | 0.63 | 0.86 | 1.218 | 14.66

From the NIST ThermoML archive (doi:10.1021/je060108f)
